Molecular target: T1, Bcl-wΔ29 (Homo sapiens, UniProt Q92843)
T1 construct: GST tagged Bclw ΔC29 protein
T1 sequence (Q92843 1-164 limits assumed): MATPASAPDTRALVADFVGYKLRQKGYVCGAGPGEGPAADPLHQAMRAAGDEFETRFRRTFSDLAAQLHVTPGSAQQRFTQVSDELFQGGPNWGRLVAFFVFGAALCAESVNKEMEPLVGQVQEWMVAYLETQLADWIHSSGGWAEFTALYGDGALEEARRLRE
Experiment: Alphascreen GST competition binding assay, benzoylurea compounds vs Biotinylated Bim BH3-26 peptide on GST tagged Bclw ΔC29 protein
Details: GST tagged Bclw ΔC29 protein 0.05 nM, Biotinylated Bim BH3-26 peptide 3.0 nM, 4 hours at room temperature; values marked a tested in a separate experiment; n.b. = not binding in the assay conditions

| IC50 | Bcl-wΔ29 IC50 (µM) | Structure (SMILES) |
| --- | --- | --- |
| 62 µM | – | CCCN(C(=O)N[C@@H](CSCc1ccccc1)C(=O)O)C(=O)c1cccc(-c2ccc(C)cc2)c1 [(47)] |
| 68 µM | – | CCCN(C(=O)N[C@@H](CSCc1ccccc1)C(=O)O)C(=O)c1ccc(-c2ccccc2Cl)cc1 [(48)] |
| 96 µM | – | CCCN(C(=O)N[C@@H](CSCc1ccccc1)C(=O)O)C(=O)c1cccc(-c2ccc(OC)cc2)c1 [(52)] |
| 48 µM | – | CCCN(C(=O)N[C@@H](CSCc1ccccc1)C(=O)O)C(=O)c1cccc(-c2ccc(Cl)c(Cl)c2)c1 [(58)] |
| 68 µM | – | CCCN(C(=O)N[C@@H](CSCc1ccccc1)C(=O)O)C(=O)c1cccc(-c2ccc(Cl)cc2)c1 [(59)] |
| 48 µM | – | CCCN(C(=O)N[C@@H](CSCc1ccccc1)C(=O)O)C(=O)c1ccc(-c2ccc(C)cc2)cc1 [(62)] |
| 136 µM | – | CCCN(C(=O)N[C@@H](CSCc1ccccc1)C(=O)O)C(=O)c1ccc(-c2ccc(OC)cc2)cc1 [(63)] |
| 74 µM | – | CCCN(C(=O)N[C@@H](CSCc1ccccc1)C(=O)O)C(=O)c1ccc(-c2ccc(Cl)cc2)cc1 [(64)] |
| 60 µM | – | CCCN(C(=O)N[C@@H](CSCc1ccccc1)C(=O)O)C(=O)c1ccc(-c2ccc(Cl)c(Cl)c2)cc1 [(65)] |
| 58 µM | – | CCCN(C(=O)N[C@@H](CSCc1ccccc1)C(=O)O)C(=O)c1cccc(C#Cc2ccccc2)c1 [(66)] |
| 92 µM | – | CCCN(C(=O)N[C@@H](CSCc1ccccc1)C(=O)O)C(=O)c1ccc(C#Cc2ccccc2)cc1 [(67)] |
| 153 µM | – | CCN(C(=O)N[C@@H](CSCc1ccccc1)C(=O)O)C(=O)c1cccc(-c2ccccc2)c1 [(70)] |
| – | n.b.^b | CCCN(C(=O)NCC(=O)O)C(=O)c1cccc(-c2ccccc2)c1 [(71)] |
| – | n.b.^b | O=C([C@H](CSCc1ccccc1)NC(=O)N(Cc1cccc2ccccc12)C(=O)c1cccc(-c2ccc(F)cc2)c1)N1CCOCC1 [(72)] |
| 144 µM | – | CCCN(C(=O)N[C@@H](CSCc1ccccc1)C(=O)O)C(=O)c1cc(CC(=O)O)cc(-c2ccccc2)c1 [(81)] |

Second part, the compound before the results:

| Structure (SMILES) | IC50 | Bcl-wΔ29 IC50 (µM) |
| --- | --- | --- |
| CCCN(C(=O)N[C@@H](CSCc1ccccc1)C(=O)O)C(=O)c1ccc(-c2ccc(F)cc2)cc1 [(11)] | 104 µM | – |
| O=C(O)[C@H](CSCc1ccccc1)NC(=O)N(Cc1cccnc1)C(=O)c1cccc(-c2ccccc2)c1 [(12)] | 46 µM | – |
| CCCN(C(=O)N[C@@H](CSCc1ccccc1)C(=O)O)C(=O)c1cccc(-c2cccc3ccccc23)c1 [(13)] | 31 µM | – |
| CCCN(C(=O)N[C@@H](CSCc1ccccc1)C(=O)O)C(=O)c1cccc(-c2ccc3ccccc3c2)c1 [(14)] | 36 µM | – |
| CCCN(C(=O)N[C@@H](Cc1ccc(-c2ccccc2)cc1)C(=O)O)C(=O)c1cccc(-c2ccccc2)c1 [(15)] | 41 µM | – |
| CCCN(C(=O)N[C@@H](CCc1ccccc1)C(=O)O)C(=O)c1cccc(-c2ccccc2)c1 [(16)] | 130 µM | – |
| CCCN(C(=O)N[C@@H](Cc1ccc2ccccc2c1)C(=O)O)C(=O)c1cccc(-c2ccccc2)c1 [(17)] | 55 µM | – |
| CCCN(C(=O)N[C@@H](Cc1cccc2ccccc12)C(=O)O)C(=O)c1cccc(-c2ccccc2)c1 [(18)] | 60 µM | – |
| CCCN(C(=O)N[C@@H](CCCc1ccccc1)C(=O)O)C(=O)c1cccc(-c2ccccc2)c1 [(19)] | 132 µM | – |
| CCCN(C(=O)N[C@H](CSCc1ccccc1)C(=O)O)C(=O)c1cccc(-c2ccccc2)c1 [(21)] | 84 µM | – |
| CCCN(C(=O)N[C@@H](CSc1ccccc1)C(=O)O)C(=O)c1cccc(-c2ccccc2)c1 [(22)] | 80 µM | – |
| CCCN(C(=O)N[C@@H](CSCc1ccccc1)C(=O)O)C(=O)c1ccc(-c2ccccc2)cc1 [(23)] | 76 µM | – |
| O=C(O)[C@H](CSCc1ccccc1)NC(=O)N(Cc1cccc2ccccc12)C(=O)c1cccc(-c2ccccc2)c1 [(24)] | 31.2 µM | – |
| CCCN(C(=O)N[C@@H](CSCCc1ccncc1)C(=O)O)C(=O)c1cccc(-c2ccccc2)c1 [(25)] | 261 µM | – |
| CCCN(C(=O)N[C@@H](Cc1ccccc1)C(=O)O)C(=O)c1cccc(-c2ccccc2)c1 [(27)] | 194 µM | – |
| CCCN(C(=O)N[C@@H](Cc1ccc(O)cc1)C(=O)O)C(=O)c1cccc(-c2ccccc2)c1 [(28)] | 300 µM | – |
| CCCN(C(=O)N[C@@H](Cc1c[nH]c2ccccc12)C(=O)O)C(=O)c1cccc(-c2ccccc2)c1 [(29)] | 88 µM | – |
| CCCN(C(=O)N[C@@H](COCc1ccccc1)C(=O)O)C(=O)c1cccc(-c2ccccc2)c1 [(30)] | 147 µM | – |
| CCCN(C(=O)N[C@@H](C[S+]([O-])Cc1ccccc1)C(=O)O)C(=O)c1cccc(-c2ccccc2)c1 (some centres unmarked) [(31)] | 165 µM | – |
| CCCN(C(=O)N[C@@H](CSCc1ccccc1)C(=O)O)C(=O)c1cccc(Cc2ccccc2)c1 [(33)] | 72 µM | – |
| CCCN(C(=O)N[C@@H](CSCc1ccccc1)C(=O)O)C(=O)c1ccc(Cc2ccccc2)cc1 [(34)] | 72 µM | – |
| CCCN(C(=O)N[C@@H](CSCc1ccccc1)C(=O)O)C(=O)c1cccc(-c2ccc(F)cc2)c1 [(35)] | 66 µM | – |
| O=C(O)[C@H](CSCc1ccccc1)NC(=O)N(Cc1cccc2ccccc12)C(=O)c1cccc(-c2ccc(F)cc2)c1 [(36)] | 47 µM | – |
| O=C(O)[C@H](CSCc1ccccc1)NC(=O)N(CCC1CC1)C(=O)c1cccc(-c2ccccc2)c1 [(37)] | 60 µM | – |
| Cc1cccc(C)c1C(=O)N(C(=O)N[C@@H](CSCc1ccccc1)C(=O)O)C(C)C [(38)] | 297 µM | – |
| CC(C)CCN(C(=O)N[C@@H](CSCc1ccccc1)C(=O)O)C(=O)c1cccc(-c2ccccc2)c1 [(39)] | 50 µM | – |
| CSCCN(C(=O)N[C@@H](CSCc1ccccc1)C(=O)O)C(=O)c1cccc(-c2ccccc2)c1 [(40)] | 63 µM | – |
| O=C(O)[C@H](CSCc1ccccc1)NC(=O)N(CCC1CC1)C(=O)c1ccc(-c2ccccc2)cc1 [(43)] | 57 µM | – |
| CSCCN(C(=O)N[C@@H](CSCc1ccccc1)C(=O)O)C(=O)c1ccc(-c2ccccc2)cc1 [(45)] | 69 µM | – |
| CCCN(C(=O)N[C@@H](CSCc1ccccc1)C(=O)O)C(=O)c1cccc(-c2ccccc2Cl)c1 [(46)] | 38 µM | – |

Molecular target: T2, Bcl-xLΔ25 (Homo sapiens, UniProt Q07817)
T2 construct: GST tagged Bcl-xL ΔC25 protein
Experiment: Alphascreen GST competition binding assay, benzoylurea compounds vs Biotinylated Bim BH3-26 peptide on GST tagged Bcl-xL ΔC25 protein
Details: GST tagged Bcl-xL ΔC25 protein 0.6 nM, Biotinylated Bim BH3-26 peptide 5.0 nM, 4 hours at room temperature; n.b. = not binding in the assay conditions

T2 sequence (Q07817 1-208 limits assumed, stated change not applied): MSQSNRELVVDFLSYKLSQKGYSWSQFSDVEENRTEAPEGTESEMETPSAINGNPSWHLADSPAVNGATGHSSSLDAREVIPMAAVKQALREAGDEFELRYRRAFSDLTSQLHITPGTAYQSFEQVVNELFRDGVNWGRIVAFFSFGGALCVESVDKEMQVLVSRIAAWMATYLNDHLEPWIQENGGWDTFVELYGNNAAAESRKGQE

| IC50 | Structure (SMILES) |
| --- | --- |
| 19 µM | CCCN(C(=O)N[C@H](CC(=O)O)Cc1c[nH]c2ccccc12)C(=O)c1cccc(C#Cc2ccccc2)c1 [(116)] |
| 35 µM | CCCN(C(=O)N[C@@H](Cc1csc2ccccc12)C(=O)O)C(=O)c1cccc(C#Cc2ccccc2)c1 [(117)] |
| 34 µM | CCCN(C(=O)N[C@H](CC(=O)O)Cc1ccc2ccccc2c1)C(=O)c1cccc(C#Cc2ccccc2)c1 [(118)] |
| 67 µM | CCCN(C(=O)N[C@H](CC(=O)O)Cc1cccc2ccccc12)C(=O)c1cccc(C#Cc2ccccc2)c1 [(119)] |
| 44 µM | CCCN(C(=O)N[C@@H](CCc1ccccc1)CC(=O)O)C(=O)c1cccc(C#Cc2ccccc2)c1 [(120)] |
| 141 µM | CCCN(C(=O)N[C@@H](CCSC)CC(=O)O)C(=O)c1cccc(C#Cc2ccccc2)c1 [(121)] |
| 26 µM | CCCCSC[C@H](NC(=O)N(CCC)C(=O)c1cccc(C#Cc2ccccc2)c1)C(=O)O [(122)] |
| 30 µM | CCCCCSC[C@H](NC(=O)N(CCC)C(=O)c1cccc(C#Cc2ccccc2)c1)C(=O)O [(123)] |
| 33 µM | CCCN(C(=O)N[C@@H](CSCCC(C)C)C(=O)O)C(=O)c1cccc(C#Cc2ccccc2)c1 [(124)] |
| 90 µM | CCCN(C(=O)N[C@@H](CSCC(CC)CC)C(=O)O)C(=O)c1cccc(C#Cc2ccccc2)c1 [(126)] |
| 40 µM | CCCN(C(=O)N[C@@H](CSCC1CCCCC1)C(=O)O)C(=O)c1cccc(C#Cc2ccccc2)c1 [(127)] |

Reference: patent EP1763509B1, “ALPHA-HELICAL MIMETICS” (THE WALTER AND ELIZA HALL INSTITUTE OF MEDICAL RESEARCH, priority 2004, dated 2006)
